Assay results published in patent US20230331685A1, “HERBICIDAL COMPOUNDS AND METHODS OF USE THEREOF” (AG Plenus Ltd, priority 2020, published 2023).

Legend:
Type in all cases: in vivo
Abutilon theophrasti [1] = test: LTP pre-emergence greenhouse test; settings: Dosage 2000 g/ha
Protocol: (§1) A basic panel of 8 weed species (Table 3) were sowed in 4×4×7 cm plastic pots containing inert sand (Sweet sand), intensively washed using osmosis water. Each specie was sowed in a separate pot. In each pot 10-15 seeds were sowed according to the specie viability. Sowing was performed one day before application. The plants were grown for 21 days in a controlled greenhouse (26±2° C. day 20±2° C. night). Hood irrigation (tap water+Shefer 5:3:8 8 mM) was given at a 50% water content by weight. Compounds were soluble in water (DDW), and commercial herbicide control was soluble in formulation B (Table 4). Application was conducted with an industrial sprayer (TeeJet 6502E nozzle) at a rate of 2 kg/ha and spray volume of […]. Pre-emergence advanced dose response experiment application was conducted at six rates between 1-0.0312 kg/ha and spray volume of […]. Percentage of emergence was evaluated at 15 DAA. Visual phenotyping was recorded using a scale of 0-6 (0: no visible effect, 6: maximum effect) at 18 DAA. All experiments included an untreated control, a solvent control and a positive control (commercial herbicide A.I.). […] Statistical analysis for plant emergence determined by % emergence ≥50 and T test (pval≤0.05), as well as Wilcox test (pval≤0.05).

Alopecurus myosuroides = test: LTP pre-emergence greenhouse test; settings: Dosage 2000 g/ha
Protocol: as §1

Lolium multiflorum = test: LTP post-emergence greenhouse test; settings: Dosage 2000 g/ha
Setaria viridis = test: LTP post-emergence greenhouse test; settings: Dosage 2000 g/ha
Lolium perenne = test: LTP post-emergence greenhouse test; settings: Dosage 2000 g/ha
Echinochloa colon = test: LTP post-emergence greenhouse test; settings: Dosage 2000 g/ha
Amaranthus tuberculatus = test: LTP post-emergence greenhouse test; settings: Dosage 2000 g/ha
Protocol: A basic panel of eight weed species (Table 3) sowed in 4×4×7 cm plastic pots containing a garden mix (klasmann). Each specie was sowed in a separate pot. In each pot, 10-15 seeds were sowed according to the specie viability. Timing of application determined at a 1-2 true leaf stage. The plants grew for 30 days in a controlled greenhouse (26±2° C. day, 20±2° C. night). Hood irrigation (tap water+Shefer 5:3:8 8 mM) was given at a 50% water content by weight. Two days before application, the tested plants thinned down to three plants per pot. Compounds were soluble in water (DDW), and commercial herbicide control was soluble in formulation B (Table 4). Before application, 1% (v/v) crop oil and 0.02% (v/v) surfactant (Tergitol™ 15-S-7) were added to the solution. […] Plants were evaluated at 3 time points (4, 8, 12 days after application (DAA)). At each time point, visual phenotyping was recorded using a scale of 0-6 (0: no visible effect, 6: maximum effect). […]
Post-emergence advanced wide panel experiment included 24 weed species (Table 5). […] Visual phenotyping was recorded at 4, 11, 17 and 20 DAA using a scale of 0-6 (0: no visible effect, 6: maximum effect). […] Statistical analysis for visual phenotyping determined by a median value of ≥3.5 and Fisher test (pval≤0.05). Statistical analysis for dry weight determined by % inhibition ≥50 and T test (pval≤0.05), as well as Wilcox test (pval≤0.05).

Conyza canadensis = test: LTP post-emergence greenhouse test; settings: Dosage 2000 g/ha
Galium aparine = test: LTP post-emergence greenhouse test; settings: Dosage 2000 g/ha
Stellaria media = test: LTP post-emergence greenhouse test; settings: Dosage 2000 g/ha
Solanum nigrum = test: LTP post-emergence greenhouse test; settings: Dosage 2000 g/ha
Eragrostis tef = test: LTP post-emergence greenhouse test; settings: Dosage 2000 g/ha
Amaranthus palmeri = test: LTP post-emergence greenhouse test; settings: Dosage 2000 g/ha
Matricaria chamomilla = test: LTP post-emergence greenhouse test; settings: Dosage 2000 g/ha
Abutilon theophrasti [2] = test: LTP post-emergence greenhouse test; settings: Dosage 2000 g/ha
Ambrosia artemisiifolia = test: LTP post-emergence greenhouse test; settings: Dosage 2000 g/ha
Sinapis alba = test: LTP post-emergence greenhouse test; settings: Dosage 2000 g/ha
Arabidopsis thaliana = test: LTP post-emergence greenhouse test; settings: Dosage 2000 g/ha
Eragrostis teff = test: HTPS pre-emergence application on monocot model plant
Protocol: The plates were placed in a controlled greenhouse in a random order inside a bath which allows flooding irrigation with tap water supplemented with a fertilizer. Applied compounds were dissolved into a final solution of 50% acetone, 49.9% DDW, 0.1% tween-20. A 96 well plate was used as a stock plate for preparing application solutions for 8 repeats. Each row contained different concentrations per chemical. Maximal concentration for application was 1.5 Kg/Ha and dilution factor is 2.5. Chemical application was performed one day after thinning out in a chemical hood. […] applied on first two true leaves in each well using 12 channel pipettes. Data collection: RGB (red, green, blue) data for green area per well was documented using camera. Data is collected at a few time points during the experiment: one day after thinning and before chemical application, two-, six- or nine-days post application. During the last two documentations, visual phenotyping was performed. Data analysis: Given RGB results and visual phenotype scores, a student t-test conducted to compare between treatment and control performance for continuous data (RGB) and Fisher exact test to analyze the non-continuous data (phenotypic scores). Dose-Response curves are generated for each treatment to infer ED50 and max. inhibition parameters, using treatment's log concentration range as the […] and normalized green area. […] Plate imaging performed at 11 and 18 DAA. RGB data for green area per well was documented and used to extract % inhibition. Dose-Response curves were built for each treatment to infer EC50, EC75 and EC90 parameters, using treatment's log concentration range as the independent variable and normalized green area as the dependent variable. Treatments were compared to controls performance given RGB results and using student's t-test (p-val≤0.05). Compounds 104-154 were applied in either or both pre- and post-emergence mode to either or both monocot and dicot model plants, following the methods described above. The compounds were applied as a gradient of concentrations as listed above, from which the ED50 was calculated.

SMILES: C[C@@H](O)[C@@H](N)CCCCC(=O)O [Compound 104, (6S,7R)-6-amino-7-hydroxyoctanoic acid]
- Herbicidal activity (In-planta), LTP-Pre emergence, Abutilon theophrasti (Abutilon theophrasti [1]): 60-80
- Herbicidal activity (In-planta), LTP-Pre emergence, Alopecurus myosuroides (Alopecurus myosuroides): 40
- Herbicidal activity (In-planta), LTP-Post emergence, Lolium multiflorum (Lolium multiflorum): 80-90
- Herbicidal activity (In-planta), LTP-Post emergence, Setaria viridis (Setaria viridis): 90-95
- Herbicidal activity (In-planta), LTP-Post emergence, Lolium perenne (Lolium perenne): 85-90
- Herbicidal activity (In-planta), LTP-Post emergence, Echinochloa colon (Echinochloa colon): 95
- Herbicidal activity (In-planta), LTP-Post emergence, Amaranthus tuberculatus (Amaranthus tuberculatus): 80
- Herbicidal activity (In-planta), LTP-Post emergence, Conyza canadensis (Conyza canadensis): 95
- Herbicidal activity (In-planta), LTP-Post emergence, Galium aparine (Galium aparine): 70
- Herbicidal activity (In-planta), LTP-Post emergence, Stellaria media (Stellaria media): 95
- Herbicidal activity (In-planta), LTP-Post emergence, Solanum nigrum (Solanum nigrum): 80-90
- Herbicidal activity (In-planta), LTP-Post emergence, Eragrostis tef (Eragrostis tef): 60-100
- Herbicidal activity (In-planta), LTP-Post emergence, Amaranthus palmeri (Amaranthus palmeri): 90
- Herbicidal activity (In-planta), LTP-Post emergence, Matricaria chamomilla (Matricaria chamomilla): 70-80
- Herbicidal activity (In-planta), LTP-Post emergence, Abutilon theophrasti (Abutilon theophrasti [2]): 80
- Herbicidal activity (In-planta), LTP-Post emergence, Ambrosia artemisiifolia (Ambrosia artemisiifolia): 70-80
- Herbicidal activity (In-planta), LTP-Post emergence, Sinapis alba (Sinapis alba): 60
- Herbicidal activity (In-planta), LTP-Post emergence, Arabidopsis thaliana (Arabidopsis thaliana): 60
- ED50 (g/ha) (Eragrostis teff; dose-response of normalized green area): 35 g/ha
- Max Inhibition (%) (Eragrostis teff; green area (RGB)): 100%
